In PubChem BioAssay (NCI):
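Five compound concentrations were applied to cells in 96-well plates for 48 hours; endpoints were derived by simple linear interpolation of the resulting dose-response curve. The concentration for full growth arrest is given as TGI.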

What was measured:
Assay in all cases: NCI anticancer screen, dose series, 48 h
HCT-15 colon = tested on: HCT-15 colon
MDA-N = tested on: MDA-N
MOLT-4 leukemia = tested on: MOLT-4 leukemia
NCI-H522 lung = tested on: NCI-H522 lung
OVCAR-4 ovarian = tested on: OVCAR-4 ovarian
PC-3 prostate = tested on: PC-3 prostate
SF-268 CNS = tested on: SF-268 CNS
SF-539 CNS = tested on: SF-539 CNS
SNB-19 CNS = tested on: SNB-19 CNS
SW-620 colon = tested on: SW-620 colon
T-47D breast = tested on: T-47D breast

COc1nc(C#CC2CCCCC2)nc(OC)n1
TGI (HCT-15 colon): 5.97 µM | TGI (MDA-N): 25.2 µM | TGI (MOLT-4 leukemia): > 100 µM | TGI (NCI-H522 lung): 6.33 µM | TGI (OVCAR-4 ovarian): 27.3 µM | TGI (PC-3 prostate): 16.3 µM | TGI (SF-268 CNS): 20.4 µM | TGI (SF-539 CNS): 6.31 µM | TGI (SNB-19 CNS): 43.6 µM | TGI (SW-620 colon): 15.6 µM | TGI (T-47D breast): > 100 µM

CCCCCCCCOc1ccc(/C=C/C2=[N+](CCO)CCO2)cc1
TGI (HCT-15 colon): 25 µM | TGI (MDA-N): 12.3 µM | TGI (MOLT-4 leukemia): 9.27 µM | TGI (NCI-H522 lung): 6.25 µM | TGI (OVCAR-4 ovarian): 14.2 µM | TGI (PC-3 prostate): 10.3 µM | TGI (SF-268 CNS): 20.5 µM | TGI (SF-539 CNS): 11 µM | TGI (SNB-19 CNS): 17.5 µM | TGI (SW-620 colon): 6.8 µM | TGI (T-47D breast): 13.2 µM

C[C@H](C1CC2(C)OC2(C)C(=O)O1)[C@H]1CC[C@H]2[C@@H]3[C@@H]4O[C@@H]4[C@@]4(O)CC=CC(=O)[C@]4(C)[C@H]3CC[C@]12C (stereo not given in full)
TGI (HCT-15 colon): > 50 µM | TGI (MDA-N): > 50 µM | TGI (MOLT-4 leukemia): > 50 µM | TGI (NCI-H522 lung): > 50 µM | TGI (OVCAR-4 ovarian): > 50 µM | TGI (PC-3 prostate): > 50 µM | TGI (SF-268 CNS): > 50 µM | TGI (SNB-19 CNS): > 50 µM | TGI (SW-620 colon): > 50 µM | TGI (T-47D breast): > 50 µM

Cc1nc(-c2cc3ccccc3oc2=O)cs1
TGI (HCT-15 colon): > 100 µM | TGI (MDA-N): > 100 µM | TGI (MOLT-4 leukemia): > 100 µM | TGI (NCI-H522 lung): > 100 µM | TGI (OVCAR-4 ovarian): > 100 µM | TGI (PC-3 prostate): > 100 µM | TGI (SF-268 CNS): > 100 µM | TGI (SF-539 CNS): > 100 µM | TGI (SNB-19 CNS): > 100 µM | TGI (SW-620 colon): > 100 µM | TGI (T-47D breast): > 100 µM

COC(=O)Nc1nc2ccc(NC(=O)c3ccc(I)cc3)cc2[nH]1
TGI (HCT-15 colon): > 100 µM | TGI (MDA-N): > 100 µM | TGI (MOLT-4 leukemia): > 100 µM | TGI (NCI-H522 lung): > 100 µM | TGI (OVCAR-4 ovarian): > 100 µM | TGI (PC-3 prostate): > 100 µM | TGI (SF-268 CNS): > 100 µM | TGI (SF-539 CNS): > 100 µM | TGI (SNB-19 CNS): > 100 µM | TGI (SW-620 colon): > 100 µM | TGI (T-47D breast): > 100 µM

COc1cc(N(CCC#N)CCC#N)ccc1/C=N\NC(=O)c1ccc(C)cc1
TGI (HCT-15 colon): > 100 µM | TGI (MDA-N): > 100 µM | TGI (MOLT-4 leukemia): > 100 µM | TGI (NCI-H522 lung): > 100 µM | TGI (OVCAR-4 ovarian): > 100 µM | TGI (PC-3 prostate): 31.1 µM | TGI (SF-268 CNS): > 100 µM | TGI (SF-539 CNS): > 100 µM | TGI (SNB-19 CNS): > 100 µM | TGI (SW-620 colon): > 100 µM | TGI (T-47D breast): > 100 µM

CC(=O)OCC1OC(n2c(C)c(C)c(C)c(C#N)c2=S)C(OC(C)=O)C(OC(C)=O)C1OC(C)=O (stereo not given)
TGI (HCT-15 colon): > 100 µM | TGI (MDA-N): > 100 µM | TGI (MOLT-4 leukemia): > 100 µM | TGI (NCI-H522 lung): 69.1 µM | TGI (OVCAR-4 ovarian): > 100 µM | TGI (PC-3 prostate): > 100 µM | TGI (SF-268 CNS): > 100 µM | TGI (SF-539 CNS): > 100 µM | TGI (SNB-19 CNS): > 100 µM | TGI (SW-620 colon): > 100 µM | TGI (T-47D breast): > 100 µM

O=C(OCc1ccccc1)N1CCNCCNCCN(C(=O)OCc2ccccc2)CCNCC1
TGI (HCT-15 colon): 50.1 µM | TGI (MDA-N): 31.3 µM | TGI (MOLT-4 leukemia): 38.9 µM | TGI (NCI-H522 lung): 31.4 µM | TGI (OVCAR-4 ovarian): > 100 µM | TGI (PC-3 prostate): > 100 µM | TGI (SF-539 CNS): 32.8 µM | TGI (SNB-19 CNS): > 100 µM | TGI (SW-620 colon): 32.8 µM | TGI (T-47D breast): 41 µM

O=[N+]([O-])/C(C(Cl)=C(Cl)Cl)=C(/Nc1cccc2cccnc12)n1nnc2ccccc21
TGI (HCT-15 colon): 28.1 µM | TGI (MDA-N): 27.2 µM | TGI (MOLT-4 leukemia): > 100 µM | TGI (OVCAR-4 ovarian): 45.7 µM | TGI (PC-3 prostate): 51.3 µM | TGI (SF-268 CNS): 37.4 µM | TGI (SF-539 CNS): 38.2 µM | TGI (SNB-19 CNS): 33.1 µM | TGI (SW-620 colon): 31.3 µM | TGI (T-47D breast): 41 µM

COC(NC(=O)Nc1ccccc1C)(C(F)(F)F)C(F)(F)F
TGI (MDA-N): > 100 µM | TGI (MOLT-4 leukemia): > 100 µM | TGI (NCI-H522 lung): > 100 µM | TGI (OVCAR-4 ovarian): > 100 µM | TGI (PC-3 prostate): > 100 µM | TGI (SF-268 CNS): > 100 µM | TGI (SF-539 CNS): > 100 µM | TGI (SNB-19 CNS): > 100 µM | TGI (SW-620 colon): > 100 µM | TGI (T-47D breast): > 100 µM

O=c1[nH]c(=O)n(C2OC(CO)C(O)C2O)cc1OCCCc1ccccc1 (stereo not given)
TGI (HCT-15 colon): > 100 µM | TGI (MDA-N): > 100 µM | TGI (MOLT-4 leukemia): > 100 µM | TGI (OVCAR-4 ovarian): > 100 µM | TGI (PC-3 prostate): > 100 µM | TGI (SF-268 CNS): > 100 µM | TGI (SF-539 CNS): > 100 µM | TGI (SNB-19 CNS): > 100 µM | TGI (SW-620 colon): > 100 µM | TGI (T-47D breast): > 100 µM

Cc1c([C@H](C)[C@@H]2NC[C@@H](C)C[C@H]2O)ccc2c1C[C@H]1[C@H]2CC=C2C[C@@H](O)CC[C@@]21C
TGI (HCT-15 colon): 57 µM | TGI (MDA-N): 31 µM | TGI (MOLT-4 leukemia): 37.4 µM | TGI (NCI-H522 lung): 36.6 µM | TGI (OVCAR-4 ovarian): 40 µM | TGI (PC-3 prostate): 32.1 µM | TGI (SF-268 CNS): > 100 µM | TGI (SNB-19 CNS): 82.3 µM | TGI (SW-620 colon): > 100 µM | TGI (T-47D breast): 53.2 µM

CC(C)=CCC[C@@H](C)C1=C(O)C(Nc2ccccc2I)=C(C)C(=O)C1=O
TGI (HCT-15 colon): > 75 µM | TGI (MDA-N): > 75 µM | TGI (MOLT-4 leukemia): > 19.5 µM | TGI (OVCAR-4 ovarian): > 75 µM | TGI (PC-3 prostate): > 51.8 µM | TGI (SF-268 CNS): > 69.3 µM | TGI (SF-539 CNS): 30 µM | TGI (SNB-19 CNS): > 75 µM | TGI (SW-620 colon): > 75 µM | TGI (T-47D breast): 47.5 µM

CCOC1=C(c2ccccc2)N2CCCCC2O1 (stereo not given)
TGI (HCT-15 colon): 98.6 µM | TGI (MDA-N): 21.7 µM | TGI (MOLT-4 leukemia): > 73 µM | TGI (NCI-H522 lung): 13.4 µM | TGI (PC-3 prostate): 22.3 µM | TGI (SF-268 CNS): 48.1 µM | TGI (SF-539 CNS): 34.8 µM | TGI (SNB-19 CNS): > 100 µM | TGI (SW-620 colon): 36.4 µM | TGI (T-47D breast): 6.82 µM

CCSC1=CC2(O)N(CCc3ccc(OC)c(OC)c3)C(=O)CC2(C(=O)OC)CC1=O (stereo not given)
TGI (HCT-15 colon): 72.7 µM | TGI (MDA-N): > 100 µM | TGI (MOLT-4 leukemia): 90.8 µM | TGI (OVCAR-4 ovarian): > 100 µM | TGI (PC-3 prostate): 35.5 µM | TGI (SF-539 CNS): 78.7 µM | TGI (SNB-19 CNS): > 100 µM | TGI (SW-620 colon): 59 µM | TGI (T-47D breast): 48.5 µM

O=C(O)c1ccccc1C1c2ccccc2Oc2ccccc21
TGI (HCT-15 colon): > 100 µM | TGI (MDA-N): > 100 µM | TGI (MOLT-4 leukemia): > 100 µM | TGI (NCI-H522 lung): > 100 µM | TGI (OVCAR-4 ovarian): > 100 µM | TGI (PC-3 prostate): > 100 µM | TGI (SF-268 CNS): > 100 µM | TGI (SNB-19 CNS): > 100 µM | TGI (SW-620 colon): > 100 µM | TGI (T-47D breast): > 100 µM
